In paper PMC6435698, “Keggin-type polyoxotungstates as mushroom tyrosinase inhibitors - A speciation study” (Scientific Reports, 2019):
Like-named read-outs stand apart in the source and are kept apart here.

Columns and labels:
[1] = target: T1, abPPO4 (mushroom tyrosinase) (Agaricus bisporus, UniProt C7FF05); assay: dopachrome assay, inhibition of abPPO4 diphenolase activity; assay type: biochemical; conditions: for inhibitory effect on abPPO4 activity (in words): activity plots; for Inhibition type: substrate L-DOPA; for α, inhibition parameter, from Lineweaver-Burk intercepts: [b] from Lineweaver-Burk intercepts; as to Ki [mM], from Dixon plots: L-DOPA 0.4–1.5 mM; as to Ki [mM], from Lineweaver-Burk slopes: L-DOPA 0.4–1.5 mM
T1 construct: glutathione-S-transferase (GST) (N, cleaved yes); made in house; host or cells: E. coli BL21(DE3)
T1 sequence (C7FF05 1-379 limits assumed): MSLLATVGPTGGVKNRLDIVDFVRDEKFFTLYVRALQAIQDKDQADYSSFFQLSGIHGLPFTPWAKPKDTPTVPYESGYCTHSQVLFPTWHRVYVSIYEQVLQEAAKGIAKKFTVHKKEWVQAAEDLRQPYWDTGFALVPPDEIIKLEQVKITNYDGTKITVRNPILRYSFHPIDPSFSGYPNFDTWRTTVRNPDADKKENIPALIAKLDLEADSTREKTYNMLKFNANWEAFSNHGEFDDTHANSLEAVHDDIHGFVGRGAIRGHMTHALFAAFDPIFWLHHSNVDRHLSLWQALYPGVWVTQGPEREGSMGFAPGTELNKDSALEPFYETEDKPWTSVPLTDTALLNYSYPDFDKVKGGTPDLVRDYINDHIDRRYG
Procedure: The detailed methodology applied for kinetic evaluation is presented in the SI.
For the activity plots shown here, the ratios of reaction rates v ([I] = 0] and vapp ([I] = 0.2–14 mM) were determined from UV absorption measurements at 475 nm using the dopachrome assay. Each reaction setup contained a fixed amount of enzyme (1 µg abPPO4) in 1 mL in a plastic cuvette and the reaction buffer was 50 mM Na-citrate pH 6.8. POT stock solutions were prepared in 20 mM concentration in reaction buffer and adjusted for pH 6.8 with NaOH, if necessary. The reaction rates were extracted from the obtained absorption curves as the slope of linear fits of the steepest curve sections close to the start of the reaction over a time-range of 30 s and were determined in triplicates. The relative enzymatic activity dependent on the inhibitor concentration was fitted to a suitable hyperbolic expression (see SI for details). […] The dopachrome assay was performed exactly as described in section 3.1.1. This time, the observed reaction velocities vapp (in µmol/min) were calculated from the extracted reaction rates (in 1/s) using the extinction coefficient of dopachrome ε = 3700 M^−1 cm^−1 [62]. The so obtained data was plotted according to Lineweaver-Burk, and the slopes and ordinate intercepts of these graphs were used to extract inhibition parameters.
(The kinetic models with according mathematical expressions applied in this study are based on Copeland’s guide for enzyme kinetics[28].)
The classical Michaelis-Menten equation[28] relates the velocity v of an enzymatic reaction to the applied substrate concentration [S]:
In this equation, the Michaelis constant KM represents the substrate concentration effecting the half-maximum reaction rate vmax.
For the reported inhibition studies, we chose an expanded version of this equation (1) which accounts for all possible inhibition mechanisms and combinations thereof[28]. In general, both […]
ݒ௠௔௫,௔௣௣ = ௩೘ೌೣଵା [಺] (2)
Herein, [I] refers to the inhibitor concentration, Ki is the inhibition constant measuring the […]
The three ideal inhibition types are reflected by three limiting conditions for α:
(A) 0 < α <<1: uncompetitive inhibition
(B) α = 1: non-competitive inhibition
(C) α >> 1: competitive inhibition
Therefore, values of α < 1 often correspond to mixed-type inhibition with contributions from uncompetitive and non-competitive inhibition modes.
Insertion of expressions (2) and (3) in equation (1) leads to the final mixed-type inhibition […]
The relative enzymatic activity upon inhibition can be expressed as the ratio of the observed reaction velocity v app to the non - inhibited reaction performance v through dividing equation […]
This corresponds to a normalization of the reaction rates with respect to the non - inhibited rate. As w e were interested in the dependence of the reaction velocity on the inhibitor concentration , the substrate concentration was fixed to 1 mM L - DOPA for all activity plots.
This led to a further simplification of equation ( 1 ) : […]
Equation (6) was used as the final curve fit expression for kinetic evaluation of those POM […]
K M was set to 26.1 mM as reported for ab PPO4 by
3.2 Determination of inhibition type
3.2. 1 Kinetic evaluation using Lineweaver - Burk plots […]
linear Lineweaver - Burk [ 29 ] extrapolations. The double - reciprocal plots of 1/ v app against 1/[S] yielded straight li nes that were fitted accordingly to the corresponding ly rearranged form of […]
For simplicity, the terms for the slope m and the ordinate shift t are co mbine d in constants in […]

mushroom tyrosinase = conditions: substrate L-DOPA; cited from earlier work
[2] = tested on: Bacillus megaterium tyrosinase; set-up: method as in PMID 27725765; conditions: substrate L-DOPA; cited from earlier work
[3] = speciation / hydrolytic stability of POTs at pH 6.8 by 183W NMR; assay type: physicochemical; conditions: 183W NMR (and 31P, 27Al NMR), ca. 20 mM in 50 mM Na-citrate pH 6.8
From the text: ^183W NMR spectroscopy is the most widely applied and reliable technique for the structural characterization of POTs in solution as well as to monitor the progress of reaction. Hundreds of POM ^183W NMR spectra have been reported since the first ^183W NMR spectrum for [SiW11]^8− observed by Acerete et al. in[47]. The here-presented ^183W NMR analysis yielded a single signal for all intact [XW12]^n− structures (Figs 4A,D and S11–S14), reflecting the perfect tetrahedral symmetry of the Keggin α-isomer and clearly confirming the isomeric purity of the prepared POTs.
^183W NMR samples for all the POM compounds were prepared in high concentrations similar to the stock solutions used for kinetic experiments (usually about 20 mM) in 50 mM Na-citrate pH 6.8 if not stated otherwise. ^183W NMR spectra were recorded with a Bruker FT-NMR spectrometer Avance Neo 500 MHz in 10 mm tubes for a total experiment time of ca. 60 hours, using standard pulse programs at 20.836 MHz and a 63° flip angle with 1 s of relaxation delay; the temperature was kept at 25 °C. Chemical shifts were measured relative to external 1 M Na2WO4. For [PW12]^3−, [PW11]^7− and […], additional ^31P NMR spectra were taken, structures of [AlW12]^5−, [AlW11]^9− and [BeW12]^6− were confirmed by ^27Al NMR or ^9Be NMR spectroscopy, respectively. ^27Al, ^9Be and ^31P NMR spectra were recorded at 130.368, 70.273 and 202.53 MHz, respectively. Chemical shifts are given relative to Al(NO3)3, BeSO4 or 85% H3PO4.
In the ^183W NMR spectrum of [PW12]^3− at pH 6.8 (see Fig. 4E), the six most intense peaks can be assigned to six different symmetry-equivalent positions in [PW11]^7−[47],[49]. The less intense signals in the ^183W NMR spectrum can be attributed to other [PW12]^3− hydrolysis products[51] that have been identified in the ^31P NMR spectrum (Fig. S7B). […] Based on both spectra, it can be concluded that [PW11]^7− prevails in aqueous solution at pH 6.8. […] Assignment is complicated by the special pseudo-paramagnetic character of this cluster (see ^183W NMR analysis in Fig. S15, SI section 2.2.2.4).
In order to identify the tungstate species responsible for the inhibitory effect observed with the orthotungstate solution [WO4]^2−, ^183W NMR was performed in reaction buffer pH 6.8, which had to be readjusted by a few drops of 5 M HCl to compensate for the marked basicity of [WO4]^2−. […] The chemical shifts are in agreement with literature data[56]. […] The ^183W NMR spectra for the POT clusters with higher negative charges (see Figs S11–S14) show only one single signal, thereby confirming full structural integrity of the corresponding Keggin anions at pH 6.8. The lacunary cluster [AlW11]^9− evoked a rise in pH up to 8.5 upon dissolution in reaction buffer (pH 6.8) to reach a final concentration of 20 mM. […] In the [BeW12]^6− spectrum (Fig. S14), three additional signals at −147.6, −155.3 and −168.6 ppm can be seen, which were assigned to the β-Keggin isomer. The C3v symmetry of this isomer results in three shifts with intensity ratio 1:2:1, as previously observed for other β-isomers of Keggin structure. The β-isomer is commonly formed during any synthesis of Keggin clusters, but rearranged to the α-form during prolonged thermal reaction. Thus, the occurrence of the β-form in the present preparation can be ascribed to the reduced reaction time applied for the hydrothermal synthesis. […] The ^31P (cf. Fig. S8) and ^183W NMR (Fig. S15) spectra of [PW11Ni]^5− have a special character originating from the peculiar electronic configuration of Ni^2+ and were in general accordance with reference data[61]. In the presented ^183W NMR spectrum, signals from those W atoms in direct neighbourhood to the Ni^2+ center cannot be observed, which complicates unambiguous assignment to the desired substituted POT structure. However, the obtained results can be explained in the light of electronic effects. […]

[4] = expected from net charge; cited from earlier work
[5] = [a] from activity plot, 1 mM L-DOPA, 50 mM Na-citrate pH 6.8, 0–14 mM POT
[6] = [a] from activity plot, 1 mM L-DOPA, 50 mM Na-citrate pH 6.8, 0–14 mM POT, read-out: Ki [mM], from activity plot
[7] = [a] from activity plot, 1 mM L-DOPA, pH 6.8
[8] = [b] from Lineweaver-Burk slopes, L-DOPA 0.4–[…], pH 6.8, read-out: Ki [mM], from Lineweaver-Burk slopes
[9] = [c] from Dixon plots, average intersection, L-DOPA 0.4–[…], pH 6.8, read-out: Ki [mM], from Dixon plots

Compound | Ki [mM], from activity plot [1, 5] | inhibitory effect on abPPO4 activity (in words) ([1]; 1 mM L-DOPA, pH 6.8) | Inhibition type ([1]; pH 6.8) | structural integrity / hydrolysis at pH 6.8 [3] | α, inhibition parameter, from activity plot [1, 7] | α, inhibition parameter, from Lineweaver-Burk intercepts ([1]; pH 6.8) | also measured
O=[N+]([O-])[O-].O=[N+]([O-])[O-].[Ni+2] [Ni^2+, Ni(NO3)2, reference compound] | No inhibition | no inhibition effect | No inhibition |  |  |  | 
O=c1cc(CO)occ1O [kojic acid] |  |  |  |  |  |  | inhibition mode (mushroom tyrosinase): competitive; inhibition mode [2]: mixed-type
H[W7O24]^5− [heptatungstate] |  | measurable inhibition effects |  |  |  |  | 
K5[BW12O40] [[BW12]^5−] | No inhibition |  | No inhibition | retain full structural integrity |  |  | 
K5[PW11O39{Ni(H2O)}] [[PW11Ni]^5−] |  | pronounced inhibition | Mixed-type |  | 0.12 | 0.20 | Ki [1, 6]: 9.7 mM; Ki [1, 8]: 14.3 mM; Ki [1, 9]: 15 mM
K7[PW11O39] [[PW11]^7−] |  | inhibitory effect of intermediate capacity | Mixed-type |  | 0.12 | 0.17 | Ki [1, 6]: 12 mM; Ki [1, 8]: 9.9 mM; Ki [1, 9]: 9.9 mM
K8[SiW11O39] [[SiW11]^8−] | No inhibition | no enzymatic inhibition | No inhibition |  |  |  | inhibitory effect on abPPO4 activity (in words) ([1]; 1 mM L-DOPA, pH 6.8, listed as Hx[SiW11O39]^(8−x)−): ineffective
Na6[BeW12O40] [[BeW12]^6−] | No inhibition |  | No inhibition | retain full structural integrity |  |  | stability in aqueous buffers up to pH [4]: ≤ 9 pH
[AlW11O39{Al(H2O)}]^6− |  | weak inhibition effects |  |  |  |  | Ki [1, 6]: 54.1 mM

Further lines, with some results ahead:

Ki [mM], from activity plot [1, 5] | inhibitory effect on abPPO4 activity (in words) ([1]; 1 mM L-DOPA, pH 6.8) | Inhibition type ([1]; pH 6.8) | structural integrity / hydrolysis at pH 6.8 [3] | α, inhibition parameter, from activity plot [1, 7] | α, inhibition parameter, from Lineweaver-Burk intercepts ([1]; pH 6.8) | Compound | also measured
 | markedly lower inhibition capacity | Mixed-type | full hydrolysis | 0.13 | 0.20 | Na3[PW12O40] [[PW12]^3−] | 
No inhibition |  | No inhibition | retain full structural integrity |  |  | Na5[AlW12O40] [[AlW12]^5−] | 
No inhibition |  | No inhibition | retain full structural integrity |  |  | Na6[H2W12O40] [[H2W12]^6−] | 
 | weak inhibitory capacity | Mixed-type | not stable | 0.12 | 0.31 | Na9[AlW11O39] [[AlW11]^9−] | 
